# Laboratory results: paper PMC4721142, “Randomized controlled studies on the efficacy of antiarthritic agents in inhibiting cartilage degeneration and pain associated with progression of osteoarthritis in the rat” (Arthritis Research & Therapy, 2016)
# Where “and” joins values, the source holds several entries; their conditions need not be identical. Equal values may be shown once.
# Experiments:
# HeLa cells = assay: HeLa cell viability (CellTiter-Glo)
# Outline: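 HeLa cells with and without drug were tested for viability by CellTiter-Glo luminescence as a toxicity read-out. In the companion NF-κB reporter assay, cells co-transfected with NF-κB firefly and Renilla luciferase plasmids (8:1) were read by Dual-Glo 5 h later, normalized to viable cells and expressed as fold over unstimulated, untreated cells.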
# MIA rat model of OA = assay: MIA trial 2 digital Randall-Selitto test (daily tacrolimus 0.3 or 0.6 mg/kg i.p., curcumin 50 mg/kg p.o., fluocinolone 0.01 mg/kg s.c.; weekly clonidine 0.1 mg/kg s.c.); format: in vivo; conditions: tacrolimus 0.3 mg/kg, other drugs single dose
# Method: The digital Randall-Selitto (dRS) test is said to be a reliable and repeatable measure of neuropathic, bone, and inflammatory pain behavior in several different models, including those of arthritic or joint pain [29, 31, 32]. Baseline and posttreatment values were evaluated using a dRS test device (IITC Life Science, Woodland Hills, CA, USA). Animals were allowed to acclimate to the testing room before all experimentation and for a minimum of 30 minutes before testing. To ensure that their hind limbs were accessible, the animals were gently suspended in a restraint sling. The joint compression threshold was measured once at each time point for the ipsilateral and contralateral knee joints. Pressure was applied gradually over approximately 10 seconds to the medial and lateral aspects of the knee joint. Measurements were taken from the first observed behavior of vocalization, struggle, or withdrawal. A cutoff value of 600 g was used to prevent injury to the animal.
# Following isoflurane anesthesia, 50 μl (2 mg) of MIA was injected into the synovial space of the left knee. Animals were randomly assigned to groups, and pain behavior was assessed 7, 14, 21, and 28 days following MIA injection and intervention using WB with the Stoelting incapacitance meter (trial 1) or the dRS test (trials 2 and 3). […] Animals received MIA treatment and then saline control or therapeutic. […] Histopathology was performed at each time point and at study termination. All studies were conducted in accordance with the International Association for the Study of Pain Guidelines and were approved by the Algos Therapeutics, Inc. Institutional Animal Care and Use Committee (IACUC) before initiation. Those running the studies were blind to the treatments. See Additional file 1 for further details.
# MMT/MCLT rat model of OA = assay: MMT/MCLT trial 1 histopathology (same doses); format: in vivo; conditions: low or only dose
# Excerpt: For MMT/MCLT rat knee joints, sections were cut in 200-μm steps; stained with toluidine blue (also with a right and left half per section); and similarly analyzed for cartilage degeneration, proteoglycan loss, collagen damage, and osteophyte formation. Results were averaged across the three sections for an overall semiquantitative score. Regional differences across the tibial plateau were taken into consideration by dividing each section into three zones delineated using an ocular micrometer (outside, middle, and inside). Scores were based on the percentage of area affected within the zone.
# Cartilage degeneration in the tibia was scored on a 5-point scale as detailed in the Methods section of Additional file 1. The total extent of degeneration of the tibial plateau was measured (in micrometers) and included an analysis of cell loss, proteoglycan loss, and collagen damage. Significant cartilage degeneration reflecting any degeneration extending through more than 50 % of the cartilage thickness was also measured. Collagen damage across the medial tibial plateau (the most severely affected section of the two halves) was also quantified.
# Osteophytes and femoral cartilage degeneration were analyzed as detailed in Additional file 1. Scoring of the osteophytes and categorization into small, medium, and large was performed using an ocular micrometer. The actual osteophyte measurement (tidemark to farthest distance point extending toward the synovium) was also recorded. The femoral cartilage degeneration score and the three-zone sum of the tibial cartilage degeneration scores (mean of three levels) were summed to create a total cartilage degeneration score. The mean osteophyte score for each joint was added to this value to create a total joint score. […]
# Histopathology MMT/MCLT Model
structure (smiles),measurement,setting,value
"COc1cc(/C=C/C(=O)CC(=O)/C=C/c2ccc(O)c(OC)c2)ccc1O [Curcumin, Diferuloylmethane]",Non-toxic concentrations,HeLa cells,0 to 33.75 M
same,"dRS, hours after dosing with significant difference",MIA rat model of OA; day 7,1 h
same,"dRS, hours after dosing with significant difference",MIA rat model of OA; day 21,Pretrt^d
same,Bone score,MMT/MCLT rat model of OA; mean,3.13
same,Femoral cartilage degeneration score,MMT/MCLT rat model of OA; mean,2.21 and 2.21 ± 0.60
same,"Tibial cartilage degeneration score, 3-zone total",MMT/MCLT rat model of OA; mean,6.50
same,"Tibial cartilage degeneration score, zone 1",MMT/MCLT rat model of OA; mean,4.08
same,"Tibial cartilage degeneration score, zone 2",MMT/MCLT rat model of OA; mean,2.38
same,"Tibial cartilage degeneration score, zone 3",MMT/MCLT rat model of OA; mean,0.04
same,"Tibial cartilage degeneration width, significant",MMT/MCLT rat model of OA; mean,741.67 µm
same,"Tibial cartilage degeneration width, total",MMT/MCLT rat model of OA; mean,1312.50 µm
same,Tibial osteophyte measure,MMT/MCLT rat model of OA; mean,592.92 µm
same,Tibial osteophyte score,MMT/MCLT rat model of OA; mean,4.25
same,Total joint score,MMT/MCLT rat model of OA; mean,12.96 and 12.96 ± 0.62
same,Total joint score w/o femur,MMT/MCLT rat model of OA; mean,10.75
same,"% decrease, bone score",MMT/MCLT rat model of OA; vs saline group,4%
same,"% decrease, femoral cartilage degeneration score",MMT/MCLT rat model of OA; vs saline group,-20%
same,"% decrease, osteophyte measure",MMT/MCLT rat model of OA; vs saline group,-16%
same,"% decrease, osteophyte score",MMT/MCLT rat model of OA; vs saline group,-9%
same,"% decrease, significant degeneration width",MMT/MCLT rat model of OA; vs saline group,-2%
same,"% decrease, tibial score 3-zone total",MMT/MCLT rat model of OA; vs saline group,1%
same,"% decrease, tibial score zone 1",MMT/MCLT rat model of OA; vs saline group,5%
same,"% decrease, tibial score zone 2",MMT/MCLT rat model of OA; vs saline group,-8%
same,"% decrease, tibial score zone 3",MMT/MCLT rat model of OA; vs saline group,0%
same,"% decrease, total degeneration width",MMT/MCLT rat model of OA; vs saline group,0%
same,"% decrease, total joint score",MMT/MCLT rat model of OA; vs saline group,-5%
same,"% decrease, total joint score w/o femur",MMT/MCLT rat model of OA; vs saline group,-3%
